Assay results as given in patent publication US20260102383A1, “LPAR1 Inhibitors” (AbbVie Inc., priority 2024, published 2026).

biological target: T1, human LPAR1 (Homo sapiens, UniProt Q92633); experiment: Arrestin assay (Arrestin Reporter EDG2-bla U2OS), inhibition of LPA-stimulated signal; assay type: cell-based; details: TangoEDG2-bla U2OS cells expressing human LPAR1; 0.25 μM LPA; read-out: Arrestin Reporter EDG2-bla U2OS Human Merged IC50
T1 construct: host or cells: TangoEDG2-bla U2OS cells
Method: The inhibitory activity of compounds 15, 62, 77, 84 and 169 against LPAR1 was measured using an Arrestin assay in U2OS cells expressing human LPAR1.
FreeStyle media was warmed in a 37° C. water bath. Cryo-preserved vial(s) of TangoEDG2-bla U2OS cells were rapidly thawed in a 37° C. water bath. The thawed cells were added to FreeStyle media and cells were pelleted at 300×g for 5 minutes. The supernatant was aspirated, and cells were resuspended in FreeStyle media. Cell density was adjusted to 0.25×10^6 cells/mL. Cells (1×10^4 in 40 μL) were added to each well of Greiner 384 well black cell plate(s). Cell plate(s) were placed in a humidified 37° C./5% CO2 incubator for 18-20 hours. Dilutions of test compound were prepared at 6× final concentration; 12-point, 3-fold dilutions using HH Buffer (1×HBSS plus 20 mM HEPES). The 6× test compound was then added to the cell plate(s) at 10 μL/well. The final concentration ranged from 10 μM to 0.00006 μM. Cell plate(s) were incubated in a humidified 37° C./5% CO2 incubator for 1 hour. During the incubation, 6×LPA was prepared at 1.5 μM in 0.1% BSA HH Buffer. After the 1-hour incubation of test compound with cells, the LPA was added to the cell plate(s) at 10 μL/well (final LPA concentration of 0.25 μM). Cell plate(s) were returned to a humidified 37° C./5% CO2 incubator for 3 hours. The Development solution was made up per the LiveBLAzerFRET B/G kit protocol. The Development solution was added to the cell plate(s) at 10 μL/well. Cell plates were incubated in the dark at room temperature for 2 hours. Plate(s) were read on an Envision Plate Reader (Perkin Elmer) to read fluorescence; excitation at 409 nm with emission at 460 nm and 530 nm. Raw Data for analysis is the ratio of emission at 460 nm divided by emission 530 nm. The formula used to determine % Inhibition is as follows (1−(Raw Data−Low Average)/(High Average−Low Average))*100. Percent Inhibition was plotted to determine IC50 value with GraphPad Prism 9.5.0 software using Variable slope 4-parameter curve fit analysis.
Additional compounds of the present disclosure were synthesized in a manner similar to the compounds described above and understood by a person of ordinary skill in the art. The inhibitory activity of the compounds of the present disclosure against LPAR1 was measured using the above-referenced Arrestin Assay protocol.

T1 sequence (Q92633 whole entry): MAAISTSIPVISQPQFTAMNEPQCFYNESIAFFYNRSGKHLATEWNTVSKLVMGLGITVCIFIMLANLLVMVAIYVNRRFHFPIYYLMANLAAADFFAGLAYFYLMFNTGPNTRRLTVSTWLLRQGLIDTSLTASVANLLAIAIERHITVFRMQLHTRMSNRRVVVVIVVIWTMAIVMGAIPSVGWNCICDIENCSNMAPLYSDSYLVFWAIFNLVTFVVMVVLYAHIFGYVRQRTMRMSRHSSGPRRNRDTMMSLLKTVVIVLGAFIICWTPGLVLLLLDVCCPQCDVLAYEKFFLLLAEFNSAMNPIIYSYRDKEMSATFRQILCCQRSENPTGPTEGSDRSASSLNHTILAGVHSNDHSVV

Row | IC50 [nM] | Molecule
1 | 77.3 | CO[C@H]1CC[C@@H]([C@H](CN2CCC(C(=O)Nc3ccc(Cl)cc3OC(F)F)(n3nccc3C(C)C)CC2)C(=O)O)CC1 (single isomer, unassigned) [Compound 184]
2 | 123 | COCC[C@@H](CN1CCC(C(=O)Nc2ccc(Cl)cc2OC(F)F)(n2ncc3c2C(C)(C)OC3)CC1)C(=O)O [Compound 210, (2S)-2-[[4-[[4-chloro-2-(difluoromethoxy)phenyl]carbamoyl]-4-(6,6-dimethyl-4H-furo[3,4-c]pyrazol-1-yl)-1-piperidyl]methyl]-4-methoxy-butanoic acid]
3 | 48.3 | CC(C)c1ccnn1C1(C(=O)Nc2ccc(Cl)cc2OC(F)F)CCN(C[C@@](C)(C(=O)O)C2CCOCC2)CC1 (single isomer, unassigned) [Compound 78, (2.5)-3-[4-[[4-chloro-2-(difluoromethoxy)phenyl]carbamoyl]-4-(5-isopropylpyrazol-1-yl)-1-piperidyl]-2-methyl-2-tetrahydropyran-4-yl-propanoic acid]
4 | 19.1 | CC(C)c1ccnn1C1(C(=O)Nc2ccc(Cl)cc2OC(F)F)CCN(CC2(C(=O)O)CCCCC2)CC1 [Compound 42, 1-[[4-[[4-chloro-2-(difluoromethoxy)phenyl]carbamoyl]-4-(5-isopropylpyrazol-1-yl)-1-piperidyl]methyl]cyclohexanecarboxylic acid]
5 | 66.6 | CC(C)c1ccnn1C1(C(=O)Nc2ccc(Cl)cc2OC(F)F)CCN(CC(C(=O)O)C(C)O)CC1 (centres unmarked) [Compound 203, 2-[[4-[[4-chloro-2-(difluoromethoxy)phenyl]carbamoyl]-4-(5-isopropylpyrazol-1-yl)-1-piperidyl]methyl]-3-hydroxy-butanoic acid]
6 | 4.57 | CCOC(=O)N1CC[C@@](CN2CCC(C(=O)Nc3ccc(Cl)cc3OC(F)F)(n3nccc3C(C)C)CC2)(C(=O)O)C1 [Compound 55, (3S)-3-[[4-[[4-chloro-2-(difluoromethoxy)phenyl]carbamoyl]-4-(5-isopropylpyrazol-1-yl)-1-piperidyl]methyl]-1-ethoxycarbonyl-pyrrolidine-3-carboxylic acid]
7 | 15.7 | CC(C)c1ccnn1C1(C(=O)Nc2ccc(Cl)cc2OC(F)F)CCN(CC2(C(=O)O)CCN(C(=O)C34CC(C)(C3)C4)CC2)CC1 [Compound 79, 4-[[4-[[4-chloro-2-(difluoromethoxy)phenyl]carbamoyl]-4-(5-isopropylpyrazol-1-yl)-1-piperidyl]methyl]-1-(3-metbylbicyclo[1.1.1]pentane-1-carbonyl)piperidine-4-carboxylic acid]
8 | 30.5 | CC(C)c1ccnn1C1(C(=O)Nc2ccc(Cl)cc2OC(F)F)CCN(CC2(C(=O)O)CCN(C(=O)C3CCC3)CC2)CC1 [Compound 44, 4-[[4-[[4-chloro-2-(difluoromethoxy)phenyl]carbamoyl]-4-(5-isopropylpyrazol-1-yl)-1-piperidyl]methyl]-1-(cyclobutanecarbonyl) piperidine-4-carboxylic acid]
9 | 23.4 | CC(C)c1ccnn1C1(C(=O)Nc2ccc(Cl)cc2OC(F)F)CCN(C(=N)[C@@H]2C[C@@H]2C(=O)O)CC1 [Compound 96, (1S,2R)-2-[4-[[4-chloro-2-(difluoromethoxy)phenyl]carbamoyl]-4-(5-isopropylpyrazol-1-yl)piperidine-1-carboximidoyl] cyclopropanecarboxylic acid]
10 | 14 | CC(C)c1c(Cl)cnn1C1(C(=O)Nc2ccc(Cl)cc2OC(F)F)CCN(C[C@@H](C(=O)O)C2CCOCC2)CC1 (single isomer, unassigned) [Compound 197]

Row | Molecule | IC50 [nM]
11 | (2S)-3-[4-[[4-chloro-2- (difluoromethoxy)phenyl] carbamoyl]-4-1(65)-6- methyl-5,6-dihydro-4H- cyclopenta[c]pyrazol-1- yl]-1-piperidyl]-2- tetrahydropyran-4-yl- propanoic acid [Compound 174] | 50.2
